We go through 22 compounds from US12281102B2, “Inhibitors of APOL1 and methods of using same” (Vertex Pharmaceuticals Incorporated, priority 2020, dated 2025).

This test has as its target T1, G1 APOL1 (Homo sapiens, UniProt O14791, I384M/S342G).
T1 construct: expressed in transfected cells
T1 sequence (O14791 28-398 S342G/I384M): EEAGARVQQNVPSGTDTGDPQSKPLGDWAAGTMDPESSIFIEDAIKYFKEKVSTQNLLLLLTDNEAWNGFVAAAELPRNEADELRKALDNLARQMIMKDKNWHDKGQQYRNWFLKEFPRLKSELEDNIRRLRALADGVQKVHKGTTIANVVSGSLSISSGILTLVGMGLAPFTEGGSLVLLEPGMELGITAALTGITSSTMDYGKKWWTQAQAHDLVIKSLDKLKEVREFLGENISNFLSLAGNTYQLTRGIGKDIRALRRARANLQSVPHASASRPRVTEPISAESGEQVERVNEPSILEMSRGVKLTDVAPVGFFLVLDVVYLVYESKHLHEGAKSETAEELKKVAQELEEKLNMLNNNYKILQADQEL
Nature of the test: Acute APOL1 Thallium Assay with inducible stable clones of HEK 293 cells. Format: cell-based. The settings on record: HEK 293 T-Rex inducible stable clone expressing G1 APOL1; read-out: Thallium Assay (IC50). The method, boiled down:
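APOL1 pore function was measured as thallium influx, detected by a Tl+-sensitive fluorescent dye loaded as AM ester, on a FLIPR Tetra after Tl+ addition. Cells were HEK T-Rex G1 APOL1 clone DC3.25, 26,000 per well, induced with tetracycline at plating in Opti-MEM assay medium.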

pIC50: −log10 of the molar value. A value given as a limit tells only on which side of the number the result lay.

For the compound `O=C(Cc1ncccn1)NC[C@H]1C[C@H](c2c(-c3ccc(F)cc3)[nH]c3c(F)cc(F)cc32)C1` [Compound 248], the pIC50 (as a rule, the IC50 on a negative log10 scale, so that one unit is a factor of ten) was under 6.00.

`O=C1CC[C@H](C(=O)NC[C@H]2C[C@@H](c3c(-c4ccc(F)cc4)[nH]c4c(F)cc(F)cc43)C2)N1` [Compound 249]: the pIC50 is under 6.00.

Turning to `CC(F)(F)C(=O)N[C@H]1C[C@@H](c2c(-c3ccc(F)cc3)[nH]c3c(F)cc(F)cc32)C1` [Compound 68], the pIC50 was 6.00 to 6.60.

Turning to `Fc1ccc(-c2[nH]c3c(F)cc(F)cc3c2C2CC(CN[C@H]3CCOC3)C2)cc1` (stereo partly shown) [Compound 398], the negative-log IC50 (pIC50) is under 6.00.

As for `NCC1CC(c2c(-c3ccc(C4CC4)cc3)[nH]c3ccc(F)cc23)C1` (stereo not shown) [Compound 177], the pIC50 is under 6.00.

Turning to `C[C@@H](NC(=O)OC(C)(C)C)C(=O)NC[C@H]1C[C@H](c2c(-c3ccc(F)cc3)[nH]c3c(F)cc(F)cc32)C1` [Compound 295], the negative-log IC50 (pIC50) is under 6.00.

As to `O=C1C[C@@H](C(=O)NC[C@H]2C[C@@H](c3c(-c4ccc(F)cc4)[nH]c4c(F)cc(F)cc43)C2)N1` [Compound 241], the pIC50 is under 6.00.

Turning to `CC1(C(=O)NC2CC(Cc3c(-c4ccc(F)cc4)[nH]c4c(F)cc(F)cc34)C2)CCNC1=O` (mixture of isomers) [Compound 169], the pIC50 is under 6.00.

Take `O=C1CC(C(=O)NC[C@H]2C[C@H](c3c(-c4ccc(F)cc4)[nH]c4c(F)cc(F)cc43)C2)C(=O)N1` (stereo partly shown) [Compound 287]: the negative-log IC50 (pIC50) is under 6.00.

Regarding `NS(=O)(=O)CCCC(=O)NC[C@H]1C[C@@H](c2c(-c3ccc(F)cc3)[nH]c3c(F)cc(F)cc32)C1` [Compound 280], the negative logarithm of the IC50 (pIC50) was under 6.00.

For `O=C(NC[C@H]1C[C@H](c2c(-c3ccc(F)cc3)[nH]c3c(F)cc(F)cc32)C1)C1CCO1` (stereo partly shown) [Compound 192], the pIC50 is over 6.60.

For the compound `CN1CCC(CC(=O)N[C@H]2C[C@H](c3c(-c4ccc(F)cc4)[nH]c4c(F)cc(F)cc43)C2)C1` (stereo partly shown) [Compound 110], the negative-log IC50 (pIC50) is under 6.00.

On to `O=c1[nH]c2ccc(S(=O)(=O)N[C@H]3C[C@H](c4c(-c5ccc(F)cc5)[nH]c5c(F)cc(F)cc54)C3)cc2[nH]1` [Compound 153], for which the pIC50 is under 6.00.

On to `NCC(=O)NC[C@H]1C[C@@H](c2c(-c3ccc(F)cc3)[nH]c3c(F)cc(F)cc32)C1` [Compound 190], for which the pIC50 is over 6.60.

On to `OCCNC1CC(c2c(-c3ccc(F)cc3)[nH]c3c(F)cc(F)cc23)C1` (stereo not shown) [Compound 25], for which the pIC50 was 6.00 to 6.60.

`O=C(N[C@H]1C[C@H](Cc2c(-c3ccc(F)cc3)[nH]c3c(F)cc(F)cc23)C1)C1(CO)CC1` [Compound 159, N-[3-[[5,7-difluoro-2-(4-fluorophenyl)-1H-indol-3-yl]methyl]cyclobutyl]-1-(hydroxymethyl)cyclopropanecarboxamide]: the negative logarithm of the IC50 (pIC50) was under 6.00.

Consider `C[C@H](CO)NCC1CC(c2c(-c3ccc(F)cc3)[nH]c3c(F)cc(F)cc23)C1` (stereo partly shown) [Compound 394], for which the pIC50 is under 6.00.

As to `O=C(CC1COC1)N[C@H]1C[C@@H](c2c(-c3ccc(F)cc3)[nH]c3c(F)cc(F)cc32)C1` [Compound 50], the pIC50 was under 6.00.

With `CC(NC(=O)O[C@H]1C[C@H](c2c(-c3ccc(F)cc3)[nH]c3c(F)cc(F)cc32)C1)C(N)=O` (mixture of isomers) [Compound 456, [3-[5,7-difluoro-2-(4-fluorophenyl)-1H-indol-3-yl]cyclobutyl]N-(2-amino-1-methyl-2-oxo-ethyl)carbamate], the negative-log IC50 (pIC50) was under 6.00.

For `O=C(C1CC1)N1CCC(Cc2c(-c3ccc(F)cc3)[nH]c3c(F)cc(F)cc23)C1` (stereo not shown) [Compound 445, Cyclopropyl-[3-[[5,7-difluoro-2-(4-fluorophenyl)-1H-indol-3-yl]methyl]pyrrolidin-1-yl]methanone], the negative-log IC50 (pIC50) was under 6.00.

`O=c1ccc2cc(S(=O)(=O)NC[C@H]3C[C@H](c4c(-c5ccc(F)cc5)[nH]c5c(F)cc(F)cc54)C3)ccc2[nH]1` [Compound 417]: the negative-log IC50 (pIC50) is under 6.00.

`Cc1[nH]cnc1CCNS(=O)(=O)NC[C@H]1C[C@H](c2c(-c3ccc(F)cc3)[nH]c3c(F)cc(F)cc32)C1` [Compound 334]: the pIC50 was under 6.00.
